Results on 27 molecules are retold here after ChEMBL document CHEMBL2203235, “Optimization of a natural product-based class of γ-secretase modulators” (J Med Chem, 2012).

For orientation: IC50 means the concentration at which inhibition is half-maximal.

One data set relates to Liver microsomes. The experiment in a line: Metabolic stability in human liver microsomes at 1 uM after 60 mins by LC/MS/MS analysis. To be noted: 1 h. For orientation: Liver microsomes are vesicles of endoplasmic reticulum, rich in cytochrome P450 enzymes.
The nature of data set [1]: Modulation of gamma secretase in CHO-2B7 cells assessed as reduction in amyloid beta 42 level after 5 hrs by MSD ELISA. To be noted: Cricetulus griseus, CHO-2B7, 5 h. It is filed as cell-based. In general terms: ELISA stands for enzyme-linked immunosorbent assay.
Data set [2] in a line: Modulation of gamma secretase in CHO-2B7 cells assessed as reduction in amyloid beta 40 level after 5 hrs by MSD ELISA. The data set is classed as cell-based. Particulars: Cricetulus griseus, CHO-2B7, 5 h.

As for `CC(C)[C@@H](OC(=O)N1CCC1)[C@H]1C[C@@H](C)[C@H]2[C@H](O1)[C@H](O)[C@@]1(C)[C@@H]3CC[C@H]4C(C)(C)[C@@H](OC(=O)N5CC(O)C5)CC[C@@]45C[C@@]35CC[C@]21C`, the Stability result with Liver microsomes is on record as “Stable”. The IC50 was 350 nM in data set [1] and 8000 nM in data set [2].

On to `CC(C)[C@@H](OC(=O)N1CCC1)[C@H]1C[C@@H](C)[C@H]2[C@H](O1)[C@H](O)[C@@]1(C)[C@@H]3CC[C@H]4C(C)(C)[C@@H](OC(=O)N(C)C)CC[C@@]45C[C@@]35CC[C@]21C`, for which, in the data set on Liver microsomes, the Stability result was “Stable”. The half-inhibitory concentration (IC50) in data set [1] came to 1300 nM; in data set [2], 1400 nM.

For `CC(C)[C@@H](OC(=O)N1CCC1)[C@H]1C[C@@H](C)[C@H]2[C@H](O1)[C@H](O)[C@@]1(C)[C@@H]3CC[C@H]4C(C)(C)[C@@H](OC(=O)N[C@@H]5CCNC5=O)CC[C@@]45C[C@@]35CC[C@]21C`, the Stability result in the data set on Liver microsomes is recorded as “Stable”. The values for the half-inhibitory concentration (IC50) in data set [1] and in data set [2] were 180 nM and 5900 nM, respectively.

For `CCO[C@@H]([C@H]1C[C@@H](C)[C@H]2[C@H](O1)[C@H](O)[C@@]1(C)[C@@H]3CC[C@H]4C(C)(C)[C@@H](O[C@H]5CN(CCN6CCOCC6)CCO5)CC[C@@]45C[C@@]35CC[C@]21C)C(C)(C)O`, in the data set with Liver microsomes, the Stability entry is listed as “Stable”. For the same molecule, the IC50 in data set [1] was determined as 430 nM; in data set [2] it was 1300 nM.

Turning to `CC(C)[C@@H](OC(=O)N1CCC1)[C@H]1C[C@@H](C)[C@H]2[C@H](O1)[C@H](O)[C@@]1(C)[C@@H]3CC[C@H]4C(C)(C)[C@@H](OC(=O)NCCCC(=O)O)CC[C@@]45C[C@@]35CC[C@]21C`, the Stability entry with Liver microsomes is given as “Stable”. The values for the half-inhibitory concentration (IC50) in data set [1] and in data set [2] were 280 nM and 7200 nM, respectively.

On to `CC(C)[C@@H](OC(=O)N1CCC1)[C@H]1C[C@@H](C)[C@H]2[C@H](O1)[C@H](O)[C@@]1(C)[C@@H]3CC[C@H]4C(C)(C)[C@@H](OC(=O)NCCNS(=O)(=O)C(F)(F)F)CC[C@@]45C[C@@]35CC[C@]21C`, for which the Stability entry in the data set with Liver microsomes was “Stable”. The figures for the IC50 in data set [1] and in data set [2] were 1500 nM and 11000 nM, respectively.

For the molecule `CCO[C@@H]([C@H]1C[C@@H](C)[C@H]2[C@H](O1)[C@H](O)[C@@]1(C)[C@@H]3CC[C@H]4C(C)(C)[C@@H](O[C@H]5CN(C(=O)CC6CNC6)CCO5)CC[C@@]45C[C@@]35CC[C@]21C)C(C)(C)O`, the Stability entry with Liver microsomes was “Stable”. Besides, the IC50 in data set [1] was determined as 120 nM; in data set [2], 2500 nM.

For the molecule `CC(C)CC(=O)N1CCO[C@@H](O[C@H]2CC[C@]34C[C@]35CC[C@]3(C)[C@@H]6[C@H](O[C@@H]([C@H](OC(=O)N7CCC7)C(C)C)C[C@H]6C)[C@H](O)[C@@]3(C)[C@@H]5CC[C@H]4C2(C)C)C1`, the Stability result in the data set on Liver microsomes is given as “Stable”. In addition, the half-inhibitory concentration (IC50) in data set [1] worked out at 1300 nM; in data set [2] it was 11000 nM.

For the molecule `CCO[C@@H]([C@H]1C[C@@H](C)[C@H]2[C@H](O1)[C@H](O)[C@@]1(C)[C@@H]3CC[C@H]4C(C)(C)[C@@H](OC(=O)N[C@H]5CCNC5=O)CC[C@@]45C[C@@]35CC[C@]21C)C(C)(C)O`, in the data set with Liver microsomes, the Stability entry is given as “Stable”. Moreover, the IC50 in data set [1] amounted to 190 nM; in data set [2], 2900 nM.

In the case of `CC(C)[C@@H](OC(=O)N1CCC1)[C@H]1C[C@@H](C)[C@H]2[C@H](O1)[C@H](O)[C@@]1(C)[C@@H]3CC[C@H]4C(C)(C)[C@@H](O[C@H]5CN(C6COC6)CCO5)CC[C@@]45C[C@@]35CC[C@]21C`, the Stability result in the data set on Liver microsomes is reported as “Stable”. The values for the IC50 in data set [1] and in data set [2] were 560 nM and 11000 nM, respectively.

Regarding `CC(=O)N1CCN(C(=O)O[C@H]2CC[C@]34C[C@]35CC[C@]3(C)[C@@H]6[C@H](O[C@@H]([C@H](OC(=O)N7CCC7)C(C)C)C[C@H]6C)[C@H](O)[C@@]3(C)[C@@H]5CC[C@H]4C2(C)C)CC1`, in the data set on Liver microsomes, the Stability entry was “Stable”. The IC50 in data set [1] was determined as 190 nM; in data set [2], 5100 nM.

For the molecule `CCO[C@@H]([C@H]1C[C@@H](C)[C@H]2[C@H](O1)[C@H](O)[C@@]1(C)[C@@H]3CC[C@H]4C(C)(C)[C@@H](O[C@H]5CN(C6CNC6)CCO5)CC[C@@]45C[C@@]35CC[C@]21C)C(C)(C)O`, the Stability result with Liver microsomes is listed as “Stable”. The IC50 was found to be 100 nM in data set [1] and 2400 nM in data set [2].

Take `CCO[C@@H]([C@H]1C[C@@H](C)[C@H]2[C@H](O1)[C@H](O)[C@@]1(C)[C@@H]3CC[C@H]4C(C)(C)[C@@H](O[C@H]5CN(C6CCOCC6)CCO5)CC[C@@]45C[C@@]35CC[C@]21C)C(C)(C)O`: the Stability result with Liver microsomes was “Stable”. Also, the half-maximal inhibitory concentration (IC50) in data set [1] was 350 nM; in data set [2], 5000 nM.

For the molecule `CCO[C@@H]([C@H]1C[C@@H](C)[C@H]2[C@H](O1)[C@H](O)[C@@]1(C)[C@@H]3CC[C@H]4C(C)(C)[C@@H](OC(=O)N5CC[C@@H](C(=O)O)C5)CC[C@@]45C[C@@]35CC[C@]21C)C(C)(C)O`, the Stability result with Liver microsomes is reported as “Stable”. The IC50 in data set [1] was 540 nM; in data set [2], 14000 nM.

On to `CCO[C@@H]([C@H]1C[C@@H](C)[C@H]2[C@H](O1)[C@H](O)[C@@]1(C)[C@@H]3CC[C@H]4C(C)(C)[C@@H](O[C@H]5CN(CCCC(=O)O)CCO5)CC[C@@]45C[C@@]35CC[C@]21C)C(C)(C)O`, for which the Stability result with Liver microsomes was “Stable”. Besides, the results for the IC50 in data set [1] and in data set [2] were 630 nM and 6500 nM, respectively.

`CC(C)[C@@H](OC(=O)N1CCC1)[C@H]1C[C@@H](C)[C@H]2[C@H](O1)[C@H](O)[C@@]1(C)[C@@H]3CC[C@H]4C(C)(C)[C@@H](O[C@H]5CN(C(=O)CN6CCC6)CCO5)CC[C@@]45C[C@@]35CC[C@]21C`: in the data set with Liver microsomes, the Stability result is given as “Stable”. Further, the IC50 was found to be 110 nM in data set [1] and 7700 nM in data set [2].

For `CC(C)C(=O)N1CCO[C@@H](O[C@H]2CC[C@]34C[C@]35CC[C@]3(C)[C@@H]6[C@H](O[C@@H]([C@H](OC(=O)N7CCC7)C(C)C)C[C@H]6C)[C@H](O)[C@@]3(C)[C@@H]5CC[C@H]4C2(C)C)C1`, the Stability entry in the data set with Liver microsomes was “Stable”. The 50% inhibitory concentration (IC50) in data set [1] came to 400 nM; in data set [2], 11000 nM.

As to `CCO[C@@H]([C@H]1C[C@@H](C)[C@H]2[C@H](O1)[C@H](O)[C@@]1(C)[C@@H]3CC[C@H]4C(C)(C)[C@@H](OC(=O)N5CCN(CC(=O)O)CC5)CC[C@@]45C[C@@]35CC[C@]21C)C(C)(C)O`, in the data set with Liver microsomes, the Stability result is “Stable”. Moreover, the IC50 is 290 nM in data set [1] and 10000 nM in data set [2].

For `CCO[C@@H]([C@H]1C[C@@H](C)[C@H]2[C@H](O1)[C@H](O)[C@@]1(C)[C@@H]3CC[C@H]4C(C)(C)[C@@H](OC(=O)N5CCC5)CC[C@@]45C[C@@]35CC[C@]21C)C(C)(C)O`, in the data set with Liver microsomes, the Stability result is “Stable”. For the same molecule, the IC50 in data set [1] is 140 nM; in data set [2] it was 5000 nM.

Consider `CCO[C@@H]([C@H]1C[C@@H](C)[C@H]2[C@H](O1)[C@H](O)[C@@]1(C)[C@@H]3CC[C@H]4C(C)(C)[C@@H](O[C@H]5CN(CCN6CCC6)CCO5)CC[C@@]45C[C@@]35CC[C@]21C)C(C)(C)O`, for which the Stability entry in the data set with Liver microsomes is recorded as “Stable”. Further, the results for the IC50 in data set [1] and in data set [2] were 110 nM and 2900 nM, respectively.

As to `CCO[C@@H]([C@H]1C[C@@H](C)[C@H]2[C@H](O1)[C@H](O)[C@@]1(C)[C@@H]3CC[C@H]4C(C)(C)[C@@H](O[C@H]5CN(CCC(=O)O)CCO5)CC[C@@]45C[C@@]35CC[C@]21C)C(C)(C)O`, in the data set with Liver microsomes, the Stability result is on record as “Stable”. Moreover, the figures for the 50% inhibitory concentration (IC50) in data set [1] and in data set [2] were 310 nM and 9600 nM, respectively.

Turning to `CCO[C@@H]([C@H]1C[C@@H](C)[C@H]2[C@H](O1)[C@H](O)[C@@]1(C)[C@@H]3CC[C@H]4C(C)(C)[C@@H](OC(=O)NC5CN(C)C5)CC[C@@]45C[C@@]35CC[C@]21C)C(C)(C)O`, the Stability result in the data set with Liver microsomes was “Stable”. Moreover, the results for the IC50 in data set [1] and in data set [2] were 65 nM and 980 nM, respectively.

Take `CCO[C@@H]([C@H]1C[C@@H](C)[C@H]2[C@H](O1)[C@H](O)[C@@]1(C)[C@@H]3CC[C@H]4C(C)(C)[C@@H](O[C@H]5CN([C@H]6CCOC6)CCO5)CC[C@@]45C[C@@]35CC[C@]21C)C(C)(C)O`: the Stability entry with Liver microsomes is given as “Stable”. Also, the figures for the IC50 in data set [1] and in data set [2] were 420 nM and 6200 nM, respectively.

For `CCO[C@@H]([C@H]1C[C@@H](C)[C@H]2[C@H](O1)[C@H](O)[C@@]1(C)[C@@H]3CC[C@H]4C(C)(C)[C@@H](O[C@H]5CN(CCN6CCOC6=O)CCO5)CC[C@@]45C[C@@]35CC[C@]21C)C(C)(C)O`, the Stability result in the data set with Liver microsomes is given as “Stable”. Also, the values for the IC50 in data set [1] and in data set [2] were 150 nM and 1900 nM, respectively.

With `CCO[C@@H]([C@H]1C[C@@H](C)[C@H]2[C@H](O1)[C@H](O)[C@@]1(C)[C@@H]3CC[C@H]4C(C)(C)[C@@H](O[C@H]5CN(C6(C)COC6)CCO5)CC[C@@]45C[C@@]35CC[C@]21C)C(C)(C)O`, in the data set with Liver microsomes, the Stability result is on record as “Stable”. Moreover, the IC50 came out at 400 nM in data set [1] and 5800 nM in data set [2].

Take `CC(C)[C@@H](OC(=O)N1CCC1)[C@H]1C[C@@H](C)[C@H]2[C@H](O1)[C@H](O)[C@@]1(C)[C@@H]3CC[C@H]4C(C)(C)[C@@H](O[C@H]5CN(CCCC(=O)O)CCO5)CC[C@@]45C[C@@]35CC[C@]21C`: the Stability entry in the data set with Liver microsomes is “Stable”. Further, the IC50 in data set [1] amounted to 280 nM; in data set [2], 7500 nM.

As to `CNC(=O)O[C@H]1CC[C@]23C[C@]24CC[C@]2(C)[C@@H]5[C@H](O[C@@H]([C@H](OC(=O)N6CCC6)C(C)C)C[C@H]5C)[C@H](O)[C@@]2(C)[C@@H]4CC[C@H]3C1(C)C`, the Stability entry in the data set with Liver microsomes is reported as “Stable”. Besides, the IC50 in data set [1] amounted to 760 nM; in data set [2], 8700 nM.
